Assay results published in patent US20180161314A1, “Methods for Treating Hyperuricemia and Related Diseases” (Ardea Biosciences, Inc., priority 2010, published 2018).
Read-outs that look alike come from different tables or passages of the source.

Test system: gout patients with hyperuricemia
Assay type: in vivo
Settings: for Mean absolute sUA reduction / Mean sUA % change / Mean sUA level: ± SE; for % Response rate for sUA falling below 4 mg/dL / % Response rate for sUA falling below 5 mg/dL / % Response rate for sUA falling below 6 mg/dL: allopurinol 300 mg
Description: Study Objectives • To measure the effect of drug 1, alone and in combination with allopurinol, on serum urate concentration. • To evaluate the safety and tolerability of drug 1 in combination with allopurinol.
The study is open-label in gout patients with hyperuricemia, involving 2 panels of ˜10-12 patients per panel. The panels may be enrolled simultaneously.
Panel 1 receives a once-daily dose of allopurinol 300 mg alone for 7 days and for an additional 7 days in combination with a once-daily dose of drug 1 400 mg. Patients then receive 7 days of a once-daily dose of drug 1 400 mg alone. Panel 2 follows the same regimen as panel 1, at doses of allopurinol 300 mg and drug 1 600 mg.
• Day −10 to Day 28: colchicine prophylaxis; or • Day −7 to Day 28: colchicine prophylaxis (for patients not washing out from ULT) • Days 1-7: allopurinol 300 mg qd • Days 8-14: drug 1 400 mg qd+allopurinol 300 mg qd • Days 15-21: drug 1 400 mg qd
• Day −10 to Day 28: colchicine prophylaxis; or • Day −7 to Day 28: colchicine prophylaxis (for patients not washing out from ULT) • Days 1-7: allopurinol 300 mg qd • Days 8-14: drug 1 600 mg qd+allopurinol 300 mg qd • Days 15-21: drug 1 600 mg qd
Gout patients on a urate lowering therapy (ULT), have previously taken a ULT or who have never taken a ULT are eligible to participate. Screening procedures to determine patient eligibility are performed within approximately 14 days of the first dose of study drug (Day 1). Subjects currently on ULT wash-out for at least 10 days before Day 1, and begin colchicine (Colcry® 0.6 mg qd, URL Pharma) as prophylaxis for gout flares at the beginning of the wash-out period. Subjects not on ULT begin colchicine administration at least 7 days prior to Day 1. Patients intolerant of colchicine during the screening period are considered screen failures and not enrolled. Prophylactic administration of colchicine continues for 7 days after the last dose of study medication.
Eligible patients report to the study center early morning on Days −1, 7, 14, and 21 (or the afternoon/evening the day before). Serial blood samples are collected on Days −1, 7, 14, and 21. Study medication is administered to each patient and taken orally every morning with approximately 240 mL of water, at approximately the same time of the morning every day, and approximately 30 minutes after finishing a full breakfast (approximately 650 Kcal and 35% fat); the breakfast is standardized on Days −1 to 21.
Inclusion Criteria • Patient is male or post-menopausal or surgically sterile female. • Patient is 18-80 years of age. • Patient meets one or more criteria for the diagnosis of gout as per the American Rheumatism Association (ARA) Criteria for the Classification of Acute Arthritis of Primary Gout (Appendix B). • Patient sUA≥8 mg/dL at screening. • Patient willing and able to give informed consent and adhere to visit/protocol schedules • No clinically relevant abnormalities in blood pressure (BP), heart rate (HR), body temperature and respiratory rate as per Investigator's judgment.
Subject urate serum levels are recorded, and any safety concerns assessed (by adverse events, clinical laboratory test results, vital signs, 12-lead ECGs, and physical examinations). […] Urate serum concentrations are evaluated for treatment- and/or time-dependent changes relative to baseline (Day −1), and may be expressed both in standard units (mg/dL) and as changes from baseline (e.g., percent change, absolute change, maximal change, and time or day of maximal change).
Drug 1 was tested according to the protocol described in Example 21.
Serum urate levels were measured and absolute and % reduction levels from baseline calculated, for Allopurinol monotherapy, Drug 1 monotherapy and Allopurinol plus Drug 1 combination.

[1] = Drug 1 400 mg panel: allopurinol 300 mg qd days 1-7, combination days 8-14, drug 1 400 mg qd alone days 15-21
[2] = Drug 1 600 mg panel: allopurinol 300 mg qd days 1-7, combination days 8-14, drug 1 600 mg qd alone days 15-21

SMILES: O=C(O)CSc1nnc(Br)n1-c1ccc(C2CC2)c2ccccc12 [Drug 1, Sodium 2-(5-bromo-4-(4-cyclopropylnaphthalen-1-yl)-4H-1,2,4-triazol-3-ylthio)acetate]
- Mean absolute sUA reduction [1]: -3.0 ± 0.46 mg/dL
- Mean sUA % change [1]: −30.2 ± 3.7%
- Mean sUA level [1]: 6.6 ± 0.22 mg/dL
- % Response rate for sUA falling below 4 mg/dL (Drug 1 400 mg panel): 0%
- % Response rate for sUA falling below 5 mg/dL (Drug 1 400 mg panel): 0%
- % Response rate for sUA falling below 6 mg/dL (Drug 1 400 mg panel): 20%
- Mean absolute sUA reduction [2]: -3.3 ± 0.23 mg/dL
- Mean sUA % change [2]: −37.2 ± 2.6%
- Mean sUA level [2]: 5.7 ± 0.41 mg/dL
- % Response rate for sUA falling below 4 mg/dL (Drug 1 600 mg panel): 0%
- % Response rate for sUA falling below 5 mg/dL (Drug 1 600 mg panel): 33%
- % Response rate for sUA falling below 6 mg/dL (Drug 1 600 mg panel): 67%
